Results as given in ChEMBL document CHEMBL4507276 (2021).

Columns and labels:
[1] = molecular target: T1, Serine/threonine-protein kinase TAO2 (Homo sapiens) (UniProt Q9UL54); settings: Compound concentration 1000.0 nM
T1 sequence (whole entry): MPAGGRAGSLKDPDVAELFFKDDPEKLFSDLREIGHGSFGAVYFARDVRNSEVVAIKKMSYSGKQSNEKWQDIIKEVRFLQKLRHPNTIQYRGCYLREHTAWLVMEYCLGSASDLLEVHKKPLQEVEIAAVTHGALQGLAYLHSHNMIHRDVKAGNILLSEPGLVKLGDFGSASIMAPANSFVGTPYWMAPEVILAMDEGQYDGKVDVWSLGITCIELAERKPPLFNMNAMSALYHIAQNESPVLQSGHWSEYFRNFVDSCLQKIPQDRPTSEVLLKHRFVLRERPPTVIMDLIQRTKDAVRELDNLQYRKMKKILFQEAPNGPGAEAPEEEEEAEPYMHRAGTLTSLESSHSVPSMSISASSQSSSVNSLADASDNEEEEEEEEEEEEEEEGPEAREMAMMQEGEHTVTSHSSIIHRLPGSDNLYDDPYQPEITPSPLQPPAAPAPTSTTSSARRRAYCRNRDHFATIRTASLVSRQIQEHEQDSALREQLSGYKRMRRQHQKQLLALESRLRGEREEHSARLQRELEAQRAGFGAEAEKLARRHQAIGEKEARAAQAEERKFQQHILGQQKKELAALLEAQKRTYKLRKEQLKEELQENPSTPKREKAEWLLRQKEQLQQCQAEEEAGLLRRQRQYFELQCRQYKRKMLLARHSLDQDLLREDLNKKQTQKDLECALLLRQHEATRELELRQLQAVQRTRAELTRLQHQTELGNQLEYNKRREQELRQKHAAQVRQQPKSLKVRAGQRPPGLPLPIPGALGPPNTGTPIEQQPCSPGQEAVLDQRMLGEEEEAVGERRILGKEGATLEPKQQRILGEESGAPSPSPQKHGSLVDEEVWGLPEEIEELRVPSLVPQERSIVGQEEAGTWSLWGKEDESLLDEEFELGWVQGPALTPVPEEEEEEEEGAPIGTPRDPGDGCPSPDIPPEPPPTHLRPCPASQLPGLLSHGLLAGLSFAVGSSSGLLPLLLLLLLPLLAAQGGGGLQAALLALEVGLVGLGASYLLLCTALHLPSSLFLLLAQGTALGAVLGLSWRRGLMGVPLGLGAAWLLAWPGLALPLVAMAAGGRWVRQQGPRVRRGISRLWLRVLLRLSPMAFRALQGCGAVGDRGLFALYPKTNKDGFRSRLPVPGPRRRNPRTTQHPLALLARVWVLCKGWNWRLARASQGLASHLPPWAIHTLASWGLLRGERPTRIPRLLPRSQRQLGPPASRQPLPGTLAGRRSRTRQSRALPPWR

[2] = molecular target: Myosin-IIIb (Homo sapiens) (UniProt Q8WXR4); settings: Compound concentration 1000.0 nM
Myosin-IIIb (Homo sapiens), sequence (Q8WXR4 whole entry): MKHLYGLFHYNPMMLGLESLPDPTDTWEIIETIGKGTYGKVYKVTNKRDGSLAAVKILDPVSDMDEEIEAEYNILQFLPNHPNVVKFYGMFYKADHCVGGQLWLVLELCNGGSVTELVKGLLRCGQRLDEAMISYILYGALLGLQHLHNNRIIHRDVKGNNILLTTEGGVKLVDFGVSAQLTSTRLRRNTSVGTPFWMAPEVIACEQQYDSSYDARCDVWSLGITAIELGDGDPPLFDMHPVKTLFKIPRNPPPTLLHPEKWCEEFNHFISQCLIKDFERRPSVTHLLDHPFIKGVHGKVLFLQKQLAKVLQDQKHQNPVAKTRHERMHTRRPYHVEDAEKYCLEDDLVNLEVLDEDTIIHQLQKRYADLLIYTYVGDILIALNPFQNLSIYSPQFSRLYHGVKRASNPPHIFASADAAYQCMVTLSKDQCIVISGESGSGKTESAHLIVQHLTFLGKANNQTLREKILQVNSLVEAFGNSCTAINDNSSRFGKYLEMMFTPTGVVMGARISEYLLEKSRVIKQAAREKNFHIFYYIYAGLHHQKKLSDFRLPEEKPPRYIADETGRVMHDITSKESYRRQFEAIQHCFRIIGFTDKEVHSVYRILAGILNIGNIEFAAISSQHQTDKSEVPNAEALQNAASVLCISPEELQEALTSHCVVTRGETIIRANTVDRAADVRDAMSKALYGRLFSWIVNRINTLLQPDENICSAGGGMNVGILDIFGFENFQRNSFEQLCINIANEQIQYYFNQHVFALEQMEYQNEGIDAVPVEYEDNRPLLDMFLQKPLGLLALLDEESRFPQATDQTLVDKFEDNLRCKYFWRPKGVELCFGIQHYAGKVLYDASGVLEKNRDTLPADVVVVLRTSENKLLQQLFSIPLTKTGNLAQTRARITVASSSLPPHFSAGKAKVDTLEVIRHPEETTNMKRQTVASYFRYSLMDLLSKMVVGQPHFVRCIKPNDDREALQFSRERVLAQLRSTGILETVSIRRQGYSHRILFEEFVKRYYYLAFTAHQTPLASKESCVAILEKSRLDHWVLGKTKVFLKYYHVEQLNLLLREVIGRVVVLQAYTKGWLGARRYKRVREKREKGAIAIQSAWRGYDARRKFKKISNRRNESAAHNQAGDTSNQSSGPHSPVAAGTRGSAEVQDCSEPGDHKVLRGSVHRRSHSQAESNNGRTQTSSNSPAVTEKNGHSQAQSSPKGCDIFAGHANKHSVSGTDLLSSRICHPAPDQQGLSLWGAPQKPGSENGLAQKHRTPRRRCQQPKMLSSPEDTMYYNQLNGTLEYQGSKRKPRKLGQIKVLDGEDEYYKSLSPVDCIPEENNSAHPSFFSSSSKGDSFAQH

[3] = molecular target: Cyclin-dependent kinase 16 (Homo sapiens) (UniProt Q00536); settings: Compound concentration 1000.0 nM
Cyclin-dependent kinase 16 (Homo sapiens), sequence (Q00536 whole entry, canonical isoform): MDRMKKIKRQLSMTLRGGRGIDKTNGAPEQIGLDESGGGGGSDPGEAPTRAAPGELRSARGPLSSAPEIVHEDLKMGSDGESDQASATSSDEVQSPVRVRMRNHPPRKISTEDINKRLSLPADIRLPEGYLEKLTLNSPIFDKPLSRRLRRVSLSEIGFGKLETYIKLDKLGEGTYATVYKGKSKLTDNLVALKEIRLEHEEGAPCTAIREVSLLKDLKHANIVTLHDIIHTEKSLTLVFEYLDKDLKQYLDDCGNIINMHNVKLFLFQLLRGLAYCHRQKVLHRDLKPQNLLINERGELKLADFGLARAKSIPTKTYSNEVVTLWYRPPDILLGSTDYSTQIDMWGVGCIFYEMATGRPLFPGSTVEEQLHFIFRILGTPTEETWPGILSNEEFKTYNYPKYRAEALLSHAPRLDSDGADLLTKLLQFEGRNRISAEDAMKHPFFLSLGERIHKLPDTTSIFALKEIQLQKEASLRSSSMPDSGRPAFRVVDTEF

[4] = tested on: Phosphatidylinositol 4,5-bisphosphate 3-kinase catalytic subunit alpha isoform (Homo sapiens), P42336 [I800L]; settings: Compound concentration 1000.0 nM
Phosphatidylinositol 4,5-bisphosphate 3-kinase catalytic subunit alpha isoform (Homo sapiens), P42336 [I800L], sequence (P42336 whole entry I800L, canonical isoform): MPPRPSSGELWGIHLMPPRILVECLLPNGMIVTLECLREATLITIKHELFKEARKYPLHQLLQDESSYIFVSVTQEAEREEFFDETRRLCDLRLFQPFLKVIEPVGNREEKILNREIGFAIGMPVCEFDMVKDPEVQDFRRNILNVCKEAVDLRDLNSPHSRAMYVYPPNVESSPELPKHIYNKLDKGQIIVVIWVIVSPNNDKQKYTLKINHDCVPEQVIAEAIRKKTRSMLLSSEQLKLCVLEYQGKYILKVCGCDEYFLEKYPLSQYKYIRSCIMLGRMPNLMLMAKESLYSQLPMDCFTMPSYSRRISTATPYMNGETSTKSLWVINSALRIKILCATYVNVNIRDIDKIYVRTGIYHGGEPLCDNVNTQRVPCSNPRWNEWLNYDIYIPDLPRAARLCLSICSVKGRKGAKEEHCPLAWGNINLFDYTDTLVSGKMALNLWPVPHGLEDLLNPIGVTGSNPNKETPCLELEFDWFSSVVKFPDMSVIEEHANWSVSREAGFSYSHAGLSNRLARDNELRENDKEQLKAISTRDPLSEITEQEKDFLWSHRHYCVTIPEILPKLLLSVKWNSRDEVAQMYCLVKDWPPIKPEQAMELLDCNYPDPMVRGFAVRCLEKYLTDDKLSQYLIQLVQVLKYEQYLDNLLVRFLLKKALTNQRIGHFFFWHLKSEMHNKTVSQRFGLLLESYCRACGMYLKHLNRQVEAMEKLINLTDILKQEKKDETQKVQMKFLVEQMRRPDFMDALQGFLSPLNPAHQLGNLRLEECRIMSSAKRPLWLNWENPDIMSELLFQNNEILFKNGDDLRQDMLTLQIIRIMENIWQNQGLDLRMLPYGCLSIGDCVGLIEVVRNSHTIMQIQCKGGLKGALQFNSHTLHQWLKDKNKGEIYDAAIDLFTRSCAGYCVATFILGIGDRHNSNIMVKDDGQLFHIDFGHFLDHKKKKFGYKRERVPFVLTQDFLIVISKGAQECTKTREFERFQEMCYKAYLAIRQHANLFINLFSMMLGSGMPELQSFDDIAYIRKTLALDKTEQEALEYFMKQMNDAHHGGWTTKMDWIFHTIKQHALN

[5] = molecular target: TRAF2 and NCK-interacting protein kinase (Homo sapiens) (UniProt Q9UKE5); settings: Compound concentration 1000.0 nM
TRAF2 and NCK-interacting protein kinase (Homo sapiens), sequence (Q9UKE5 whole entry, looked up): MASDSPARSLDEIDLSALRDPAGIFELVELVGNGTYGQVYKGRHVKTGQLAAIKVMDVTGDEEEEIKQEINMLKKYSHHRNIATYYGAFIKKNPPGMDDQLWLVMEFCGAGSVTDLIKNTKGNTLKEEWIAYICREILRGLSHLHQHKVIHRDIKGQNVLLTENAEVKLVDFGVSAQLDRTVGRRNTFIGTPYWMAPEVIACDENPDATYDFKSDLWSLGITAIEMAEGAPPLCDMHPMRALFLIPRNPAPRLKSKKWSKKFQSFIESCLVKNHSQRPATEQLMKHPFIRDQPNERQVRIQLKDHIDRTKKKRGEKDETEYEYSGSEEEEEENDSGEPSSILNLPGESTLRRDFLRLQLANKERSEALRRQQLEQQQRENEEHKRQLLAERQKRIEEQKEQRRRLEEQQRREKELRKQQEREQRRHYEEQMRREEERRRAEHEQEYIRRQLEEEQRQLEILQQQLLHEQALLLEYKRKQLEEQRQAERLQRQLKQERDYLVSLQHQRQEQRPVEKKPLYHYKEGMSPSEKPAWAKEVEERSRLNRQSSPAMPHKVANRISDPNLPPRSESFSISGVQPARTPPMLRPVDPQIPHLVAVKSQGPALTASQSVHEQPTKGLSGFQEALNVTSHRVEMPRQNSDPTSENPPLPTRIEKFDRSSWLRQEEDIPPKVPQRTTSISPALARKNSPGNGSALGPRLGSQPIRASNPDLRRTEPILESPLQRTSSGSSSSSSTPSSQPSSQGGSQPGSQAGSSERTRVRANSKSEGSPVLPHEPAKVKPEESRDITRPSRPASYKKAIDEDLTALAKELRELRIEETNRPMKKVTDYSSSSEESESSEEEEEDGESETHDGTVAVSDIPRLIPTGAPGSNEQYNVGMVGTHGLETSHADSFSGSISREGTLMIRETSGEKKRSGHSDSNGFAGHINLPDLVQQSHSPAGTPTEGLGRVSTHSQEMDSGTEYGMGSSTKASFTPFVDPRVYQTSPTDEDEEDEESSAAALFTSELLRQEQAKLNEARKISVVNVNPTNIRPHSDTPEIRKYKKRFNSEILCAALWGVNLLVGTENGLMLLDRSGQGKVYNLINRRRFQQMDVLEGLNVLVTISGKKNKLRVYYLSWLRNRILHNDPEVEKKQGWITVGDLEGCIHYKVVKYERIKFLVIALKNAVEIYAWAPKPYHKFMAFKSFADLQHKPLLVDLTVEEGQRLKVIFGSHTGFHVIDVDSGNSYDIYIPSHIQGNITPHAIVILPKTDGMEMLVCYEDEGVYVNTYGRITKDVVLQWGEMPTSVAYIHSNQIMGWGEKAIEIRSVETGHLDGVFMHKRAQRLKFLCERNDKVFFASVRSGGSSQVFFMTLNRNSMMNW

[6] = molecular target: T2, Alpha-1A adrenergic receptor (Homo sapiens) (UniProt P35348); settings: Compound concentration 10.0 uM
T2 sequence (whole entry): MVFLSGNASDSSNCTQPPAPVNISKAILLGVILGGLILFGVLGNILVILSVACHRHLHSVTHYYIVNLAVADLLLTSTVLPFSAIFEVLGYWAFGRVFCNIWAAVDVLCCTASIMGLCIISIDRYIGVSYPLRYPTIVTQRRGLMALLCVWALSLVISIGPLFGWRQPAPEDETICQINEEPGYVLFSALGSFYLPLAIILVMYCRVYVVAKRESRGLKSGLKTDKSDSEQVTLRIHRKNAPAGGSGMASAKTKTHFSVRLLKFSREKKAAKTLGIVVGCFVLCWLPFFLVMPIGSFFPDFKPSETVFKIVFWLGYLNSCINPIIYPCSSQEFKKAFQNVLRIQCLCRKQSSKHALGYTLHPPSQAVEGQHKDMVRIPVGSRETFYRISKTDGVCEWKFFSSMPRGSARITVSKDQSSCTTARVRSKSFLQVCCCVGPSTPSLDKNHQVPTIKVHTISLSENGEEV

[7] = molecular target: T3, Activin receptor type-1B (Homo sapiens) (UniProt P36896); settings: Compound concentration 1000.0 nM
T3 sequence (whole entry): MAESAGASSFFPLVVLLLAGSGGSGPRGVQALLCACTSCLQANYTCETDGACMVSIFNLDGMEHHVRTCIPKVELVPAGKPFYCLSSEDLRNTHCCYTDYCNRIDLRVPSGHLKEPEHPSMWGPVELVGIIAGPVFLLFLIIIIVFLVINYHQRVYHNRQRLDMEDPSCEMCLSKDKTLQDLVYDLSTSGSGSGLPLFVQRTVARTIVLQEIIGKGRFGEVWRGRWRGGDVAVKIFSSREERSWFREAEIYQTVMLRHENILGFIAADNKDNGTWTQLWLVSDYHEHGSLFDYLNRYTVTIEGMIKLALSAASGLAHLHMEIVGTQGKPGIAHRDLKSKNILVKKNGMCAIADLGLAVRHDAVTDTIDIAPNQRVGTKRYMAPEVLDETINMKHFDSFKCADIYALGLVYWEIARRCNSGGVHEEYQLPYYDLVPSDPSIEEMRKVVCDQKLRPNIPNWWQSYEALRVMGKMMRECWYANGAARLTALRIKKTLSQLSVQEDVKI

[8] = molecular target: T4, 5-hydroxytryptamine receptor 3A (Homo sapiens) (UniProt P46098); settings: Compound concentration 10.0 uM
T4 sequence (whole entry): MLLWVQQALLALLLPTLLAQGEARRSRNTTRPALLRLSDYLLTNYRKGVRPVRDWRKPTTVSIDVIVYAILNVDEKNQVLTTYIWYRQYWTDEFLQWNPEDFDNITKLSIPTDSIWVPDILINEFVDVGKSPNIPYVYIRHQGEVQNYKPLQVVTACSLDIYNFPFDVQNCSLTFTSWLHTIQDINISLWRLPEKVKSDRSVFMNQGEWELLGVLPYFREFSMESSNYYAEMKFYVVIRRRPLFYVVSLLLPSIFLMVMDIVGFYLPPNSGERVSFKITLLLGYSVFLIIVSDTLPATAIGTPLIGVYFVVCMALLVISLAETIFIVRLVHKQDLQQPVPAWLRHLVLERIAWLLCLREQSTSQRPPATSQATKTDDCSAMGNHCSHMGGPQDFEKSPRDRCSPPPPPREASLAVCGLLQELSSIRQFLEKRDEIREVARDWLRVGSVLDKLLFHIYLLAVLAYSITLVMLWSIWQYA

CN(C)C(=O)Cn1cc(-c2nc(C3(c4ccc(-c5cnc(N)nc5)cc4)CC3)no2)cn1 [BI 0153]
inactive: residual activity [1] 100% | residual activity [2] 100% | residual activity [3] 80% | residual activity [4] 91% | residual activity [5] 100% | inhibition [6] 13.9% | residual activity [7] 84% | inhibition [8] -8.52%

CN(C)C(=O)Cn1cc(-c2nc([C@@](C)(c3ccc(-c4cnc(N)nc4)cc3)C3CC3)no2)cn1 [BI 665915]
inactive: residual activity [1] 81% | residual activity [2] 70% | residual activity [3] 86% | residual activity [4] 54% | residual activity [5] 100% | inhibition [6] 4.68% | residual activity [7] 89% | inhibition [8] -2.76%
